According to patent US7759366B2 (Sanofi-Aventis, priority 2006, dated 2010):

Biological target: hCB1R (Homo sapiens, UniProt P21554)
Sequence (P21554 whole entry): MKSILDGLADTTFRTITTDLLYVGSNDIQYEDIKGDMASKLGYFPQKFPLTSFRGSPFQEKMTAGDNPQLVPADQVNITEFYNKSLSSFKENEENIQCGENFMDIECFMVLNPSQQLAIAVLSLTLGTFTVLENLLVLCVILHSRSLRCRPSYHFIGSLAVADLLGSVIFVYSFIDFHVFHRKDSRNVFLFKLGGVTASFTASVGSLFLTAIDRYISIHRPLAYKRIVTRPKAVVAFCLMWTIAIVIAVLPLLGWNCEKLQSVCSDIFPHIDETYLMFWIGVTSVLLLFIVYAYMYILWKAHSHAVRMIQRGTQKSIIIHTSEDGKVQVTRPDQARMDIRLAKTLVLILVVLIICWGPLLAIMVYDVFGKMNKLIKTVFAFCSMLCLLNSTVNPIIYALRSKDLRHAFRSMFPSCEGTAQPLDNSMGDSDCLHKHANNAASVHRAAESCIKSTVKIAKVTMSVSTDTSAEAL
Test: In vitro functional assay (FLIPR, intracellular Ca2+) with recombinant HEK293 cells, CB1
Assay type: cell-based
Set-up: expressed in transfected cells; host or cells: HEK293
Conditions: recombinant HEK293 cells expressing CB1 and Galpha16; 20 min preincubation, then reference agonist; Ca2+ change; read-out: hCB1R: FLIPR; IC50
From the text: In Vitro Functional Assays with Recombinant Cells:

| SMILES | IC50 |
| --- | --- |
| CC(C)Oc1ccc(Nc2ccccc2CN2C(=O)N(c3ccc(C#N)c(C(F)(F)F)c3)C(=O)C2(C)C)cc1 [Example 127, 4-{3-[2-(4-isopropoxyphenylamino)benzyl]-4,4-dimethyl-2,5-dioxoimidazolidin-1-yl}-2-trifluoromethylbenzonitrile] | 7 nM |
| CC1(C)C(=O)N(c2ccc(C#N)c(C(F)(F)F)c2)C(=O)N1Cc1ccccc1Nc1ccc2c(c1)C(=O)OC2 [Example 200, 4-{4,4-dimethyl-2,5-dioxo-3-[2-(3-oxo-1,3-dihydroisobenzofuran-5-ylamino)benzyl]imidazolidin-1-yl}-2-trifluoromethylbenzonitrile] | 8 nM |
| CC1(C)C(=O)N(c2ccc(C#N)c(C(F)(F)F)c2)C(=O)N1Cc1c(Cl)cc(Cl)cc1Nc1ccc(F)cc1 [Example 35, 4-{3-[2,4-Dichloro-6-(4-fluorophenylamino)benzyl]-4,4-dimethyl-2,5-dioxoimidazolidin-1-yl}-2-trifluoromethylbenzonitrile] | 15 nM |
| COC(=O)c1ccc(Nc2cc(F)ccc2CN2C(=O)N(c3ccc(C#N)c(C4CC4)c3)C(=O)C2(C)C)cc1 [Example 158, Methyl 4-{2-[3-(4-cyano-3-cyclopropylphenyl)-5,5-dimethyl-2,4-dioxoimidazolidin-1-ylmethyl]-5-fluorophenylamino}benzoate] | 9 nM |
| CC1(C)C(=O)N(c2ccc(C#N)c(C(F)(F)F)c2)C(=O)N1Cc1ccccc1Nc1ccc(C(=O)O)cc1F [Example 80, 4-{2-[3-(4-cyano-3-trifluoromethylphenyl)-5,5-dimethyl-2,4-dioxoimidazolidin-1-ylmethyl]phenylamino}-3-fluorobenzoic acid] | 33 nM |
| COC(=O)CN(CC(=O)OC)c1ccc(Nc2ccccc2CN2C(=O)N(c3ccc(C#N)c(C(F)(F)F)c3)C(=O)C2(C)C)cc1 [Example 178] | 4 nM |
| COC(=O)C(Cc1ccc(Nc2ccccc2CN2C(=O)N(c3ccc(C#N)c(C(F)(F)F)c3)C(=O)C2(C)C)cc1)C(=O)OC [Example 232, Dimethyl 2-(4-{2-[3-(4-cyano-3-trifluoromethylphenyl)-5,5-dimethyl-2,4-dioxoimidazolidin-1-ylmethyl]phenylamino}benzyl)malonate] | 112 nM |
| CC1(C)C(=O)N(c2ccc(C#N)c(C(F)(F)F)c2)C(=O)N1Cc1ccccc1Nc1ccc(Cl)c(Cl)c1 [Example 20, 4-{3-[2-(3,4-dichlorophenylamino)benzyl]-4,4-dimethyl-2,5-dioxoimidazolidin-1-yl}-2-trifluoromethylbenzonitrile] | 21 nM |
| CC1(C)C(=O)N(c2ccc(F)c(C(F)(F)F)c2)C(=O)N1Cc1ccc(F)cc1Nc1ccc(NS(C)(=O)=O)cc1 [Example 240, N-(4-{5-Fluoro-2-[3-(4-fluoro-3-trifluoromethylphenyl)-5,5-dimethyl-2,4-dioxoimidazolidin-1-ylmethyl]phenylamino}phenyl)methanesulfonamide] | 11 nM |
| CC1(C)C(=O)N(c2ccc(C#N)c(C(F)(F)F)c2)C(=O)N1Cc1ccccc1Nc1ccc2cc(C(=O)O)ccc2c1 [Example 209, 6-{2-[3-(4-cyano-3-trifluoromethylphenyl)-5,5-dimethyl-2,4-dioxoimidazolidin-1-ylmethyl]phenylamino}naphthalene-2-carboxylic acid] | 62 nM |
| CC(C)(C)OC(=O)c1ccc(Nc2cc(F)ccc2CN2C(=O)N(c3ccc(C#N)c(C(F)(F)F)c3)C(=O)C2(C)C)cc1 [Example 125, tert-butyl 4-{2-[3-(4-cyano-3-trifluoromethylphenyl)-5,5-dimethyl-2,4-dioxoimidazolidin-1-ylmethyl]-5-fluorophenylamino}benzoate] | 110 nM |
| CC1(C)C(=O)N(c2ccc(C#N)c(C(F)(F)F)c2)C(=O)N1Cc1ccccc1Nc1ccc2c(c1)COC2=O [Example 201, 4-{4,4-dimethyl-2,5-dioxo-3-[2-(1-oxo-1,3-dihydroisobenzofuran-5-ylamino)benzyl]imidazolidin-1-yl}-2-trifluoromethylbenzonitrile] | 5 nM |
| CC(C(=O)O)(C(=O)O)c1ccc(Nc2ccccc2CN2C(=O)N(c3ccc(C#N)c(C(F)(F)F)c3)C(=O)C2(C)C)cc1 [Example 233, 2-(4-{2-[3-(4-Cyano-3-trifluoromethylphenyl)-5,5-dimethyl-2,4-dioxoimidazolidin-1-ylmethyl]phenylamino}phenyl)-2-methylmalonic acid] | 22 nM |
| CC(=O)Nc1ccc(Nc2ccccc2CN2C(=O)N(c3ccc(C#N)c(C(F)(F)F)c3)C(=O)C2(C)C)cc1 [Example 148, N-(4-{2-[3-(4-Cyano-3-trifluoromethylphenyl)-5,5-dimethyl-2,4-dioxoimidazolidin-1-ylmethyl]phenylamino}phenyl)acetamide] | 11 nM |
| CC1(C)C(=O)N(c2ccc(C#N)c(C(F)(F)F)c2)C(=O)N1Cc1cc(Cl)cc(Cl)c1Nc1ccc(F)cc1 [Example 38, 4-{3-[3,5-Dichloro-2-(4-fluorophenylamino)benzyl]-4,4-dimethyl-2,5-dioxoimidazolidin-1-yl}-2-trifluoromethylbenzonitrile] | 70 nM |
| COC(=O)C1=C[C@@H](OC(C)=O)[C@H](OC(C)=O)[C@@H](Oc2ccc(Nc3ccccc3CN3C(=O)N(c4ccc(C#N)c(C(F)(F)F)c4)C(=O)C3(C)C)cc2)O1 [Example 197, methyl (4R,5S,6S)-4,5-diacetoxy-6-(4-{2-[3-(4-cyano-3-trifluoromethylphenyl)-5,5-dimethyl-2,4-dioxoimidazolidin-1-ylmethyl]phenylamino}phenoxy)-5,6-dihydro-4H-pyran-2-carboxylate] | 19 nM |
| CC1(C)C(=O)N(c2ccc(C#N)c(C(F)(F)F)c2)C(=O)N1Cc1ccccc1Nc1cnc(O)nc1O [Example 246, 4-{3-[2-(2,4-Dihydroxypyrimidin-5-ylamino)benzyl]-4,4-dimethyl-2,5-dioxoimidazolidin-1-yl}-2-trifluoromethylbenzonitrile] | 7 nM |
| CC1(C)C(=O)N(c2ccc(F)c(C(F)(F)F)c2)C(=O)N1Cc1ccc(F)cc1Nc1ccc2c(c1)C(=O)CC2 [Example 205, 1-[4-fluoro-2-(3-oxoindan-5-ylamino)benzyl]-3-(4-fluoro-3-trifluoromethylphenyl)-5,5-dimethylimidazolidine-2,4-dione] | 17 nM |
| COc1ccc(CN2C(=O)N(c3ccc(C#N)c(C(F)(F)F)c3)C(=O)C2(C)C)c(Nc2ccc(C(=O)O)cc2)c1 [Example 130, 4-{2-[3-(4-cyano-3-trifluoromethylphenyl)-5,5-dimethyl-2,4-dioxoimidazolidin-1-ylmethyl]-5-methoxyphenylamino}benzoic acid] | 32 nM |
| CC1(C)C(=O)N(c2ccc(C#N)c(C(F)(F)F)c2)C(=O)N1Cc1cc(Cl)ccc1Nc1ccc(F)cc1 [Example 41, 4-{3-[5-Chloro-2-(4-fluorophenylamino)benzyl]-4,4-dimethyl-2,5-dioxoimidazolidin-1-yl}-2-trifluoromethylbenzonitrile] | 28 nM |
| CC1(C)C(=O)N(c2ccc(C#N)c(C(F)(F)F)c2)C(=O)N1Cc1ccc(Cl)cc1Nc1ccc(C(=O)O)cc1 [Example 131, 4-{5-chloro-2-[3-(4-cyano-3-trifluoromethylphenyl)-5,5-dimethyl-2,4-dioxoimidazolidin-1-ylmethyl]phenylamino}benzoic acid] | 15 nM |
